For eight molecules, TGI and GI50 results are on record in PubChem BioAssay (NCI).

Each structure is given as a SMILES string.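 Five concentrations, 48 hours, 96-well plates. Here, GI50 denotes the concentration required for 50% inhibition of growth. TGI denotes the concentration required for complete inhibition of growth.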

Among the test systems are CCRF-CEM leukemia; UO-31 renal; BT-549 breast; OVCAR-3 ovarian; SF-268 CNS; SNB-19 CNS; SK-MEL-5 melanoma; A549 NSCLC; SR leukemia; MDA-MB-231 breast.
Experiment in all cases: NCI tumour cell line growth inhibition, 48 h

Turning to `CC(C)(C)N1CC1CNC(=O)C(=O)NCC1CN1C(C)(C)C` (stereo not given), the TGI in the experiment on CCRF-CEM leukemia is 15.2 µM; in the experiment on UO-31 renal, greater than 21.3 µM; with BT-549 breast, greater than 92.6 µM; in the experiment with OVCAR-3 ovarian, 46.1 µM; in the experiment with SF-268 CNS, 15.4 µM; in the experiment on SNB-19 CNS, greater than 25.5 µM. Besides, the TGI in the experiment on SK-MEL-5 melanoma was 45.2 µM; in the experiment on A549 NSCLC it was 21.1 µM; in the experiment with SR leukemia it was 13.3 µM; with MDA-MB-231 breast it was greater than 100 µM.
For `Cn1cc(-c2csc(-c3ccccc3)n2)c2cccnc21`, the GI50 with CCRF-CEM leukemia was 22.8 µM; with UO-31 renal it was 11 µM; in the experiment with BT-549 breast it was 17.1 µM; with OVCAR-3 ovarian it was 16.3 µM; in the experiment with SF-268 CNS, 16.8 µM; with SNB-19 CNS it was 15.9 µM. For the same molecule, the GI50 with SK-MEL-5 melanoma is 13.7 µM; in the experiment on A549 NSCLC, 16.9 µM; in the experiment on SR leukemia, 9.24 µM; in the experiment with MDA-MB-231 breast it was 13.5 µM. Further, the TGI was greater than 100 µM with CCRF-CEM leukemia; 28.3 µM in the experiment with UO-31 renal; 45.8 µM with BT-549 breast; 32 µM with OVCAR-3 ovarian; 43 µM in the experiment with SF-268 CNS; 47.8 µM with SNB-19 CNS. Moreover, the TGI in the experiment on SK-MEL-5 melanoma was found to be 26.6 µM; with A549 NSCLC, 38 µM; in the experiment with SR leukemia, 62.4 µM; in the experiment on MDA-MB-231 breast it was 30.8 µM.
As for `COC(=O)C1C(C(=O)O)C2(c3ccccc3)C(=O)C1(c1ccccc1)C(c1ccc(OC)cc1)=C2c1ccc(OC)cc1` (stereo not given), the GI50 in the experiment on CCRF-CEM leukemia was 13.2 µM; with UO-31 renal, 25.8 µM; in the experiment with BT-549 breast, 15.8 µM; in the experiment with OVCAR-3 ovarian, 17.3 µM; in the experiment on SF-268 CNS, 25 µM; in the experiment on SNB-19 CNS, 22.4 µM. For the same molecule, the GI50 in the experiment with SK-MEL-5 melanoma is 16.8 µM; with A549 NSCLC it was 15.7 µM; in the experiment with SR leukemia, 27.2 µM; in the experiment on MDA-MB-231 breast, 24 µM. Besides, the TGI amounted to 38.5 µM in the experiment on CCRF-CEM leukemia; 75 µM in the experiment on UO-31 renal; 33.6 µM in the experiment with BT-549 breast; 41.2 µM with OVCAR-3 ovarian; 82.2 µM with SF-268 CNS; 77.3 µM in the experiment on SNB-19 CNS. The TGI was determined as 32.4 µM with SK-MEL-5 melanoma, 33.5 µM in the experiment on A549 NSCLC, 63 µM in the experiment on SR leukemia and 54.5 µM in the experiment on MDA-MB-231 breast.
Regarding `CC(=O)OC1C(O)C(C)OC(OC2C(OC(=O)C3CCC4C(C3)OC3(CC(OC(=O)/C=C/c5ccccc5)C(C)CO3)C43CO3)OC(C)C(O)C2OC(C)=O)C1O` (stereo not given), the TGI with CCRF-CEM leukemia is 0.084 µM; with UO-31 renal, 1.6 µM; in the experiment with BT-549 breast, 0.0147 µM; in the experiment on OVCAR-3 ovarian, 0.0451 µM; in the experiment on SF-268 CNS it was 0.0499 µM; in the experiment on SNB-19 CNS, 0.0316 µM. Besides, the TGI is 0.0155 µM in the experiment on SK-MEL-5 melanoma, 0.333 µM in the experiment with A549 NSCLC, greater than 2.5 µM in the experiment on SR leukemia and 0.101 µM in the experiment with MDA-MB-231 breast.
As for `CCN1C(=O)/C(=c2\sc3n(c2=O)C2C(NN=3)N(CC)C(=O)N2CC)c2ccccc21` (stereo not given), the GI50 in the experiment on CCRF-CEM leukemia was 0.433 µM; in the experiment with UO-31 renal it was 0.846 µM; with BT-549 breast, 1.37 µM; in the experiment on OVCAR-3 ovarian, 0.323 µM; in the experiment on SF-268 CNS it was 2.57 µM; in the experiment on SNB-19 CNS, 0.75 µM. Further, the GI50 is 0.463 µM in the experiment on SK-MEL-5 melanoma, 0.795 µM in the experiment on A549 NSCLC, 0.357 µM in the experiment with SR leukemia and 1.44 µM in the experiment with MDA-MB-231 breast. Besides, the TGI was greater than 100 µM in the experiment with CCRF-CEM leukemia; greater than 100 µM in the experiment on UO-31 renal; 14.4 µM in the experiment on BT-549 breast; 3.32 µM with OVCAR-3 ovarian; greater than 100 µM in the experiment with SF-268 CNS; 63 µM with SNB-19 CNS. Also, the TGI with SK-MEL-5 melanoma was 7.44 µM; in the experiment on A549 NSCLC, greater than 100 µM; in the experiment on SR leukemia, greater than 100 µM; in the experiment on MDA-MB-231 breast, 19.3 µM.
Take `CC(=O)Oc1ccc(C2OC(c3ccc4ccccc4c3OC(C)=O)=NN2C(C)=O)c(OC(C)=O)c1` (stereo not given): the GI50 was 0.32 µM in the experiment on CCRF-CEM leukemia; 0.146 µM with UO-31 renal; 0.841 µM in the experiment with BT-549 breast; 0.354 µM in the experiment on OVCAR-3 ovarian; 0.31 µM in the experiment on SF-268 CNS; 0.56 µM in the experiment on SNB-19 CNS. Besides, the GI50 is 0.321 µM with SK-MEL-5 melanoma, 0.412 µM in the experiment with A549 NSCLC, 0.198 µM in the experiment on SR leukemia and 0.506 µM with MDA-MB-231 breast. The TGI was greater than 100 µM with CCRF-CEM leukemia; 3.14 µM with UO-31 renal; 76.3 µM in the experiment with BT-549 breast; 26.1 µM in the experiment with OVCAR-3 ovarian; greater than 46 µM with SF-268 CNS; greater than 100 µM with SNB-19 CNS. Also, the TGI in the experiment with SK-MEL-5 melanoma is greater than 32.3 µM; in the experiment on A549 NSCLC, greater than 48.5 µM; in the experiment on SR leukemia it was greater than 34.5 µM; in the experiment on MDA-MB-231 breast it was greater than 89.6 µM.
Take `CC(C)c1cnc(-c2cc(Cl)ccc2F)cc1Nc1ccncc1C(=O)NC(CO)CO`: the GI50 in the experiment with CCRF-CEM leukemia was 11.6 µM; in the experiment with UO-31 renal, 2.87 µM; in the experiment on BT-549 breast, 14.8 µM; in the experiment with OVCAR-3 ovarian it was 14.3 µM; with SF-268 CNS, 12.3 µM; in the experiment with SNB-19 CNS, 15.6 µM. Also, the GI50 in the experiment on SK-MEL-5 melanoma was 14.2 µM; in the experiment with A549 NSCLC, 11.1 µM; with SR leukemia, 16.2 µM; in the experiment on MDA-MB-231 breast, 15.3 µM. Besides, the TGI in the experiment on CCRF-CEM leukemia turned out to be 54.2 µM; in the experiment with UO-31 renal it was 21.9 µM; in the experiment with BT-549 breast, 31.9 µM; in the experiment with OVCAR-3 ovarian it was 32.8 µM; in the experiment on SF-268 CNS, 33 µM; in the experiment on SNB-19 CNS, 54 µM. Further, the TGI in the experiment on SK-MEL-5 melanoma came out at 27.5 µM; with A549 NSCLC, 62.3 µM; in the experiment with SR leukemia it was 53.7 µM; in the experiment on MDA-MB-231 breast, 44.3 µM.
As for `COc1ccc(-c2nc3sccn3c2-c2ccnc(NCCNS(=O)(=O)c3ccc(C(F)(F)F)cc3)n2)cc1`, the GI50 in the experiment with CCRF-CEM leukemia is 0.37 µM; with UO-31 renal, 1.09 µM; in the experiment with BT-549 breast it was 0.707 µM; with OVCAR-3 ovarian, 2.03 µM; in the experiment with SF-268 CNS, 1.41 µM; in the experiment with SNB-19 CNS, 3.77 µM. Also, the GI50 in the experiment on SK-MEL-5 melanoma was 1.24 µM; in the experiment with A549 NSCLC, 3.98 µM; in the experiment with SR leukemia, 0.972 µM; in the experiment on MDA-MB-231 breast it was 1.22 µM. Besides, the TGI is greater than 100 µM with CCRF-CEM leukemia; greater than 100 µM in the experiment with UO-31 renal; 5.94 µM in the experiment with BT-549 breast; greater than 100 µM with OVCAR-3 ovarian; 50.9 µM in the experiment on SF-268 CNS; greater than 100 µM with SNB-19 CNS. Besides, the TGI in the experiment on SK-MEL-5 melanoma was 2.52 µM; in the experiment with A549 NSCLC, greater than 100 µM; in the experiment with SR leukemia, greater than 100 µM; in the experiment with MDA-MB-231 breast, 42.5 µM.
